Measured values taken from patent publication US10028943B2, “Method for treatment of radiologically-dense breasts” (priority 2015, dated 2018).

Tests used:
[1] = tested on: mammography-established dense breasts; test: Treatment of dense breasts: oral reduced TEMPOL in a person; type: in vivo, human
Experimental: The reduced form of TEMPOL (TEMPOL-H) or equivalent pharmacologically-active spin label/spintrap is prepared by mixing together 2 grams of TEMPOL or a pharmacologically effective amount of another spin-label or spin trap such as methynitrosopropane, 20 grams of ascorbic acid or other reducing compound in 100 ml of distilled water. The formulation is used as is. The solution is slightly-bitter. The formulation can be administered diluted in a suitable liquid such as juice, tea, or coffee. An equivalent dry form as 10 mg of tempol mixed with 100 mg of ascorbic acid or equivalent reducing substance can be easily prepared in capsule or tablet form.
One-half ml of the above solution, comprising 10 mg TEMPOL plus 100 mg ascorbic acid, was administered orally once a day to a 50 kg person with mammography-established dense breasts.

breast density = test: Extemporaneous oral TEMPOL-H treatment for fibrocystic disease of breast; type: in vivo, human; details: patient
acute ischemic stroke = details: Shuaib et al. N Engl J Med 2007; cited from earlier work

CC1(C)CC(O)CC(C)(C)N1O [TEMPOL-H, the hydroxylamine reduced form of the nitroxide 4-hydroxy-2,2,6,6-tetramethylpiperidin-1-yloxy]
mammographic clearing of breast densities ([1]; 10 mg TEMPOL plus 100 mg ascorbic acid orally once a day, 50 kg person, first results after several weeks of treatment): significant mammographic clearing of breast densities | breast densities on cessation of treatment ([1]; cessation of treatment for a few weeks): eventually reappear on cessation of treatment for a few weeks | breast densities upon reinstatement of treatment ([1]; reinstatement of treatment): breast densities reoccur | clinical signs and symptoms upon cessation of treatment (breast density; after cessation of treatment): reappeared within a few weeks | clinical signs and symptoms upon resumption of treatment (breast density; after resumption of treatment): again regressed | clearing of breast density (breast density; oral formulation of TEMPOL-H): significant clearing of breast density

CC(C)(C)[N+]([O-])=Cc1ccc(S(=O)(=O)[O-])cc1S(=O)(=O)[O-].[Na+].[Na+] [NXY-059, disulfonyl PBN]
neuroprotective efficacy (acute ischemic stroke): effective in animal models, but not in humans

CC1(C)CC(O)CC(C)(C)N1[O] [Tempol, 4-hydroxy-2,2,6,6-tetramethylpiperidin-1-yloxy]
efficacy of unreduced Tempol itself ([1]; same doses as reduced TEMPOL (10 mg)): effective at the same doses
